US20130143929A1, “FUNGICIDAL IMIDAZOLES” (EI DU PONT DE NEMOURS AND COMPANY, priority 2010, published 2013)
Marks after values point to notes of the source that are not given here.

Key:
Type in all cases: in vivo
[1] = system: Puccinia recondite f. sp. tritici (the causal agent of wheat leaf rust); assay: Test A: wheat leaf rust, preventive spray on wheat seedlings, visual disease rating; conditions: for Test A rating (% disease control, wheat leaf rust): 100 = 100% disease control; for Test A rating (100 = 100% disease control, 0 = no disease control relative to the controls): wheat leaf rust, preventive spray on wheat seedlings
In short: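 Wheat seedlings were sprayed to run-off with compound suspended in acetone/water containing 250 ppm Trem 014 (200 ppm ≈ 800 g/ha; some at 40 ppm). Puccinia recondite spores were inoculated the next day. Plants were held 24 h saturated at 20° C, then 7 days at 20° C, and disease control was rated visually on a 0–100 scale against controls.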

[2] = system: Septoria tritici (the causal agent of wheat leaf blotch); assay: Test B: wheat leaf blotch, preventive spray on wheat seedlings, visual disease rating; conditions: for Test B rating (% disease control, wheat leaf blotch): 100 = 100% disease control; for Test B rating (100 = 100% disease control, 0 = no disease control relative to the controls): wheat leaf blotch, preventive spray on wheat seedlings
In short: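 Wheat seedlings sprayed to run-off with compound suspension (acetone/water with 250 ppm Trem 014; 200 ppm ≈ 800 g/ha, some at 40 ppm), inoculated next day with Septoria tritici spores. 48 h saturated humidity at 24 °C, then 19 days at 20 °C; visual rating, 100 = full control.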

[3] = system: Blumeria graminis f. sp. tritici (also known as Erysiphe graminis f. sp. tritici, the causal agent of wheat powdery mildew); assay: Test D: wheat powdery mildew, preventive spray on wheat seedlings, visual disease rating; conditions: for Test D rating (% disease control, wheat powdery mildew): 100 = 100% disease control; for Test D rating (100 = 100% disease control, 0 = no disease control relative to the controls): wheat powdery mildew, preventive spray on wheat seedlings
In short: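 Compound suspended in acetone/water (50/50) with 250 ppm Trem 014 and sprayed to run-off on wheat seedlings (200 ppm ≈ 800 g/ha), then inoculated next day with spore dust. Disease rated visually after 8 days at 20 °C as % control relative to untreated plants (0-100).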

[4] = system: Botrytis cinerea (the causal agent of tomato Botrytis); assay: Test C: tomato Botrytis, preventive spray on tomato seedlings, visual disease rating; conditions: for Test C rating (% disease control, tomato Botrytis): 100 = 100% disease control; for Test C rating (100 = 100% disease control, 0 = no disease control relative to the controls): tomato Botrytis, preventive spray on tomato seedlings
In short: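 Test suspension (acetone/water with 250 ppm Trem 014; 200 ppm equivalent to 800 g/ha) sprayed to run-off on tomato seedlings; B. cinerea spores inoculated next day. After 48 h saturated humidity at 20° C then 3 days at 24° C, disease rated visually as % control relative to untreated controls (0–100).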

[5] = no asterisk: standard test suspension concentration, 0 = no control relative to controls
[6] = asterisk: 40 ppm test suspension
[7] = asterisk: 40 ppm test suspension, 0 = no control
[8] = no asterisk (standard test suspension concentration, not 40 ppm)

SMILES	Test A rating (100 = 100% disease control, 0 = no disease control relative to the controls) [1, 6]	Test B rating (100 = 100% disease control, 0 = no disease control relative to the controls) [2, 6]	Test D rating (100 = 100% disease control, 0 = no disease control relative to the controls) [3, 6]	Test C rating (100 = 100% disease control, 0 = no disease control relative to the controls) [4, 6]	other results
Cc1cc(F)ccc1C(O)c1c(Br)nc(C)n1-c1ccc(F)cc1Cl (stereo not shown) [compound 397]					Test A rating (% disease control, wheat leaf rust) [1, 5]: 100%; Test B rating (% disease control, wheat leaf blotch) [2, 5]: 100%; Test D rating (% disease control, wheat powdery mildew) [3, 5]: 73%; Test C rating (% disease control, tomato Botrytis) [4, 5]: 100%
OC(c1ccc(F)cc1Cl)c1c(Br)nc(Br)n1-c1ccc(F)cc1Cl (racemic) [compound 233]	100* %	100* %	72* %	95* %	
COc1cc(F)c(-n2c(C)nc(Cl)c2C(O)c2ccc(F)cc2Cl)c(F)c1 (stereo not shown) [compound 403]					Test A rating (% disease control, wheat leaf rust) [1, 7]: 99* %; Test B rating (% disease control, wheat leaf blotch) [2, 7]: 100* %; Test D rating (% disease control, wheat powdery mildew) [3, 7]: 0* %; Test C rating (% disease control, tomato Botrytis) [4, 7]: 8* %
Cc1nc(Br)c(C(O)c2ccc(C#N)cc2F)n1-c1c(F)cccc1F (stereo not shown) [compound 199]	0* %	62* %	0* %	0* %	
Cc1nc(C)n(-c2c(F)cc(Cl)cc2F)c1C(O)c1ccc(F)cc1F (racemic) [compound 246]	100* %	100* %	0* %	37* %	
Cc1nc(Cl)c(C(O)c2ccc(Cl)cc2F)n1-c1c(F)cccc1F (stereo not shown) [compound 54]	98* %	100* %	69* %	80* %	
Cc1nc(Cl)n(-c2ccc(F)cc2F)c1C(O)c1c(F)ccc(I)c1F (racemic) [compound 38]					Test A rating (100 = 100% disease control, 0 = no disease control relative to the controls) [1, 8]: 99%; Test B rating (100 = 100% disease control, 0 = no disease control relative to the controls) [2, 8]: 95%; Test D rating (100 = 100% disease control, 0 = no disease control relative to the controls) [3, 8]: 0%; Test C rating (100 = 100% disease control, 0 = no disease control relative to the controls) [4, 8]: 7%
COc1ccc(C(O)c2c(Cl)nc(C)n2-c2ccc(F)cc2F)c(Cl)c1 (stereo not shown) [compound 307]	99* %	100* %	0* %	0* %	
Cc1ncc(C(O)c2c(F)cc(F)cc2F)n1-c1c(Cl)cccc1Cl (racemic) [compound 227]					Test A rating (100 = 100% disease control, 0 = no disease control relative to the controls) [1, 8]: 84%; Test B rating (100 = 100% disease control, 0 = no disease control relative to the controls) [2, 8]: 83%; Test D rating (100 = 100% disease control, 0 = no disease control relative to the controls) [3, 8]: 0%; Test C rating (100 = 100% disease control, 0 = no disease control relative to the controls) [4, 8]: 40%
COc1ccc(C(O)c2c(Br)nc(C)n2-c2ccc(F)cc2Br)c(F)c1 (stereo not shown) [compound 310]	100* %	100* %	56* %	100* %	
